ChEMBL document CHEMBL4382205, “Tryptophan 2,3-dioxygenase inhibitory activities of tryptanthrin derivatives” (Eur J Med Chem, 2018)
pIC50, pKi: −log10 of the molar value.

Experiments:
[1] = molecular target: T1, Tryptophan 2,3-dioxygenase (Homo sapiens, UniProt P48775); experiment: Inhibition of recombinant full length C-terminal His-tagged human TDO expressed in Escherichia coli using L-Trp as substrate after 30 mins
[2] = molecular target: T1, Tryptophan 2,3-dioxygenase; experiment: Mixed type […] inhibition of recombinant full length C-terminal His-tagged human TDO expressed in Escherichia coli using L-Trp as substrate after 30 mins by Dixon plot analysis
[3] = molecular target: T1, Tryptophan 2,3-dioxygenase; experiment: Inhibition of TDO in human U87 MG cells using L-Trp as substrate after 8 hrs; format: cell-based, U-87MG ATCC
[4] = molecular target: T1, Tryptophan 2,3-dioxygenase; experiment: Inhibition of TDO (unknown origin) expressed in HEK293 cells using L-Trp as substrate after 8 hrs; format: cell-based
[5] = species on record: Homo sapiens; experiment: Selectivity ratio of IC50 for IDO1 (unknown origin) to IC50 for recombinant full length C-terminal His-tagged human TDO
[6] = molecular target: T1, Tryptophan 2,3-dioxygenase; experiment: Uncompetitive inhibition of recombinant full length C-terminal His-tagged human TDO expressed in Escherichia coli using L-Trp as substrate after 30 mins by Dixon plot analysis
[7] = molecular target: T1, Tryptophan 2,3-dioxygenase; experiment: Inhibition of TDO (unknown origin)
[8] = molecular target: Indoleamine 2,3-dioxygenase 1 (Homo sapiens, UniProt P14902); experiment: Inhibition of IDO1 (unknown origin)
Chain of Indoleamine 2,3-dioxygenase 1 (P14902 whole entry): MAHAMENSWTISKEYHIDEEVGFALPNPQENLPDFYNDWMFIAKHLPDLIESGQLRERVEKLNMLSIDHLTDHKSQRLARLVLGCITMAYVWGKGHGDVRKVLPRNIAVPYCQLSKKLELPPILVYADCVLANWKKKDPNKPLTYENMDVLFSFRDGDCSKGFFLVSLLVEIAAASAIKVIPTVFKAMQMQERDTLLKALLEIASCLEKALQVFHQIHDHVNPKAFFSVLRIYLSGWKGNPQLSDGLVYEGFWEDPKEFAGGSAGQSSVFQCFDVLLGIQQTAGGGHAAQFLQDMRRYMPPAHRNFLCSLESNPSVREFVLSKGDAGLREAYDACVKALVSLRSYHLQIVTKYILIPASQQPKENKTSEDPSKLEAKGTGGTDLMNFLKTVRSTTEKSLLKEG

T1 sequence (P48775 whole entry): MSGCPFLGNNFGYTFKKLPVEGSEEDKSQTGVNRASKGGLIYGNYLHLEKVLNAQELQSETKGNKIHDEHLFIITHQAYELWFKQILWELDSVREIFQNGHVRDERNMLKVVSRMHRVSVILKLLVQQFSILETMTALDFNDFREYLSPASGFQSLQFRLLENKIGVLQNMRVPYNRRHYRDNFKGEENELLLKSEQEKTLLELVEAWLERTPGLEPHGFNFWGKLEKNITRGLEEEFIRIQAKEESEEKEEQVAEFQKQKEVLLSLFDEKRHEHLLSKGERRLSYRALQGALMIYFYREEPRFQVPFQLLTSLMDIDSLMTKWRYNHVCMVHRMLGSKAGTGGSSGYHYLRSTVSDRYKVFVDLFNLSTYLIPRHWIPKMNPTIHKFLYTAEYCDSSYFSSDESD

O=C1c2ccccc2-n2c1nc1ccc(F)cc1c2=O
pIC50 [1]: 5.01
pKi [2]: 6.06
pIC50 [3]: 6.30
pIC50 [4]: 6.62
Ratio IC50 [5]: 88

NS(=O)(=O)NCCNc1nonc1C(=NO)Nc1ccc(F)c(Br)c1 [EPACADOSTAT]
pIC50 [1]: 4.19
pKi [6]: 4.66
pIC50 [3]: 6.59
pIC50 [4]: 6.62

O=C1c2ccccc2-n2c1nc1ccccc1c2=O [TRYPTANTHRIN]
pIC50 [1]: 5.40
pKi [6]: 6.24
pIC50 [3]: 6.71
pIC50 [4]: 6.85

O=C1c2cc(F)ccc2-n2c1nc1ccccc1c2=O
pIC50 [1]: 6.03
pKi [6]: 6.47
pIC50 [3]: 7.22
pIC50 [4]: 7.17

O=C1c2cc(O)c(O)cc2OC(c2ccc(O)c(O)c2)C1O (centres undefined)
pKi [7]: 4.80
pKi [8]: < 4.00

O=C1c2cc([N+](=O)[O-])ccc2-n2c1nc1ccccc1c2=O
pIC50 [1]: 7.00
pKi [6]: 6.67
pIC50 [3]: 7.40
pIC50 [4]: 7.21

O=C1c2cc(F)ccc2-n2c1nc1ccc(F)cc1c2=O
pIC50 [1]: 5.83
pKi [2]: 6.00
pIC50 [3]: 7.21
pIC50 [4]: 7.23

O=C1c2ccc(Cl)cc2-n2c1nc1ccccc1c2=O
pIC50 [1]: 3.65
pKi [2]: 4.37
pIC50 [3]: 6.02
pIC50 [4]: 6.13

Cc1ccc2c(c1)C(=O)c1nc3ccccc3c(=O)n1-2
pIC50 [1]: 5.49
pKi [2]: 6.08
pIC50 [3]: 6.74
pIC50 [4]: 6.67
Ratio IC50 [5]: 38

O=C1c2c(Cl)cccc2-n2c1nc1ccccc1c2=O
pIC50 [1]: 4.35
pKi [6]: 5.08
pIC50 [3]: 6.64
pIC50 [4]: 6.64

O=C1c2cc(Br)ccc2-n2c1nc1ccccc1c2=O
pIC50 [1]: 6.03
pKi [6]: 6.45
pIC50 [3]: 7.27
pIC50 [4]: 7.28
